Reference: US20250059499A1, “CELL-SURFACE ENGINEERING COMPOSITIONS AND METHODS FOR THE PREVENTION OF IMMUNE REJECTION” (THE UNIVERSITY OF BRITISH COLUMBIA, priority 2021, published 2025)
No end group written: not given here.

How the values were obtained:
Ea.hy926 cells [1] = experiment: Ammonia generation assay for gtTGase ligation on endothelial cells; format: cell-based; details: 4° C.; for NH3 production with TGase isoforms: gtTGase and mTGase, 30 minutes
Protocol: (§1) The solutions were mixed thoroughly and incubated at 4° C. for 30 minutes under static conditions. The cell supernatant was collected and the cells were washed three times with PBS and subjected to further analysis. The assessment of polymer attachment to endothelial cells are assessed by ammonia assay.
The extent of gtTGase ligation was assessed using an ammonia assay kit (Sigma™, MAK310) and used according to the manufacturer's protocols. This kit is used for the quantitative determination of ammonia (NH3), a side product in the gtTGase reaction.^6 This assay is based on the o-phthalaldehyde method in which the reagent reacts with NH3 producing a fluorescent product (λex=360 nm/λm=450 nm), proportional to the NH3 concentration in the sample.^7,8 Briefly, PBS was supplemented with 5 mM CaCl2 and 3 mM dithiothreitol (DTT). In a 96 well plate, containing either endothelial cells or glycine ethyl ether (GEE, amine donor), Q-tagged polymer (acyl donor) and guinea pig liver transglutaminase (gtTGase, Sigma™ T5398) were added to the PBS solution to a final concentration of 5 mM, 0.5 mM and 0.2 U/mL respectively (Vf=100 μL). The reaction was thoroughly mixed and rocked gently at 4° C. for 30 minutes. The sample was diluted four-fold and a 10 μL aliquot of the reaction mixture was then transferred to a tube containing 90 μL complete ammonia assay reagent and mixed thoroughly. The solution was left to react for 15 minutes at ambient temperature in the dark. The fluorescence intensity was measured at λex=360 nm/λem=450 nm using a spectrophotometer and the quantity of ammonia in solution was calculated according to Eq. 1: […]
EA.hy 926 cells plated for 15 days were washed twice with warm PBS before introducing a reaction cocktail containing 0.5 mM polymer, 5 mM CaCl2, 3 mM DTT and 0.2 U/mL transglutaminase made in DMEM media solution without phenol red. The reaction was incubated at 4° C. for 30 minutes. Then the supernatant was removed and subjected to ammonia generation assay and the cells were washed twice with warm PBS to remove unreacted polymers.

Ea.hy926 cells [2] = experiment: Cell viability (MTS assay) of modified cells; format: cell-based
Protocol: (§2) Cell viability measurements were performed on modified cells after washing with warm PBS twice. Then, the cells were subjected to MTS (3-(4,5-dimethylthiazol-2-yl)-5-(3-carboxymethoxyphenyl)-2-(4-sulfophenyl)-2H-tetrazolium) assay kit (Cell Titer 96 Aqueous One solution Cell Proliferation Assay™) and by following the manufacturer's protocol. All recorded values were normalized to healthy cells untreated with polymers. Platelet activation was performed by PE-labelled anti human […] stain was prepared by diluting 20 times using plasma. An aliquot of each platelet sample was labelled using the diluted PE-labelled anti-human […] solution (1:10 dilution) for 30 minutes at room temperature. Platelets incubated in 0.1 mM TRAP were used as positive control and platelets incubated in PE-labelled IgG were used for non-specific binding control. Each sample was analyzed for 10000 platelet events. Each experiment was replicated using a minimum of 3 donors and each donor was performed in triplicates. For human pancreatic islets, live/dead imaging assay was used for cell viability and DTZ detection assay was used to determine insulin-producing beta cells from mixed cell cultures.

EA.hy 926 monolayers = experiment: PMS-induced glycocalyx shedding (WGA stain, flow cytometry); format: cell-based; details: compared to non-sulfated counterparts
Protocol: EA.hy 926 cells were grown to confluency. Media was replaced, washed with DPBS and incubated with […] NADH, […] PMS (unless otherwise noted) and the indicated concentration of polymer; with PMS being last to be added. […] The cells were then washed extensively, stained using WGA ([…]) for 15 minutes and harvested to be analyzed using flow cytometry. Neuraminidase enzyme was used as a positive control to shed the glycocalyx.

HMEC-1 cell monolayers = experiment: Transendothelial protein passage (FITC-labelled BSA); format: cell-based; details: TNF-α 2000 U/mL, 3 hours; 0.5 mM polymer
[3] = system: BALB/c aortic allograft in C57/BL/6 recipient; experiment: Serum cytokine array after aortic interposition grafting; format: in vivo, mouse; details: 2 days and 15 days post-transplant, 0.5 mM LPGS-Q
Protocol: To assess the immune modulatory effect of enzymatic polymer grafting, an antibody array kit based on a sandwich ELISA principle (Proteome Profiler™, Panel A; R&D Systems™) was used to screen the cytokine and chemokine expression level in sera of animals according to the manufacturer's protocol. Relative expression of 40 murine cytokines and chemokines captured by corresponding antibodies spotted on a nitro-cellulose membrane was determined.
The antibodies for the following cytokines were spotted on the membrane: BLC, C5a, G-CSF, GM-CSF, I-309, Eotaxin, sICAM-1, IFN-g, IL-1a, IL-1b, IL-1ra, IL-2, IL-3, IL-4, IL-5, IL-6, IL-7, IL-10, IL-13, IL-12 p70, IL-16, IL-17 IL-23, IL-27, CXCL10 (IP-10), I-TAC, KC, M-CSF, CCL2 (MCP-1), CCL12 (MCP-5), MIG, CCL3 (MIP-1a), CCL4 (MIP-1b), CXCL2 (MIP-2), CCL5 (RANTES), SDF-1, TARC, TIMP-1, TNF-α, TREM-1. […] Following the blocking step for 1 h at 4° C., a mixture of detection antibody cocktail and 100 μL of serum sample was incubated overnight at 4° C. with the membrane. Captured proteins were labeled with a streptavidin-functionalized IR-Dye (IRDye 680RD Streptavidin; LI-COR) (1:20,000 dilution in 10% bovine serum albumin, 30 min at RT) and scanned using a LI-COR Odyssey Infrared Imaging System™. The software ImageJ™ (Version 1.52s) was used to determine the integrated density of the spots on the array images after background subtraction. […]

platelets = experiment: Platelet activation (CD62, flow cytometry); format: cell-based, human; details: 4° C.
Protocol: as §1
as §2, with “For human pancreatic islets, live/dead imaging assay was used for cell viability and DTZ detection assay was used to determine insulin-producing beta cells from mixed cell cultures.” left out

[4] = system: IL-2 activated PBMCs on TNF-α activated Ea.hy926 monolayers; experiment: PBMC adhesion to endothelial surfaces; format: cell-based, human
Protocol: Confluent Ea.hy926 monolayers seeded in a 48 well plate (30,000 cells/well) were activated with TNF-α (2000 U/mL, 3 hours). To obtain PBMCs, EDTA anticoagulated blood from healthy donors was subjected to ficoll density gradient centrifugation Histopaque™-1077 (Sigma Aldrich™). PBMCs were cultured for 24 h in RPMI-1640 containing 10% FBS (v/v), 1000 U/mL recombinant human IL-2 (Cedarlane™)^11 and 1% P/S. Prior to fluorescent labelling, cultured PBMCs were tested for absence of platelets by labelling an aliquot of cells with FITC-labelled anti-human […] (1:200 Beckman Coulter™) and analyzed by flow cytometry (CytoFLEX™, Beckman Coulter™). PBMCs containing <1% platelets were implemented for further study. The PBMC composition was also measured using a hematological analyzer (XN-550™ automated hematology analyzer, Sysmex Canada Inc.™). Following IL-2 treatment the typical composition of the PBMCs were ˜80% lymphocytes, 5% immature granulocytes, 2% basophils and 13% monocytes. […] PMBC adhesion was quantified by lysing the cells with RIPA buffer, spinning at 15,000 g to remove cell debris and measuring the fluorescent intensity of the CMFDA Dye in the lysate (λex/λem=492/517 nm using a plate reader (Spectramax3™, Molecular Devices™).

[5] = system: TNF-α activated Ea.hy926 cells co-cultured with IL-2 activated PBMCs; experiment: PBMC-mediated cytotoxicity (LDH assay); details: polymer ligated to cell surface
Protocol: EA.hy 926 monolayers were activated using TNF-α and PBMCs were activated using IL-2 as described in PBMC adhesion experiments. Following activation, PBMC was collected and resuspended in DMEM (Phenol free, 5% FBS, pen/strep). PBMCs were then added to activated EA.hy 926 monolayers (modified and unmodified) to a final concentration of 0.15×10^6 cells/mL and left to incubate at 37° C. and 5% CO2 for 18 hour. After treatment, the supernatant was collected and cell debris was removed through centrifugation. LDH content was measured using LDC cytotoxicity assay (Biovision Inc.™). Cytotoxicity was calculated using the equation below;
where, LDHsample is the amount of LDH released from the sample, LDHPBMC is the amount of LDH released from PBMC samples not subjected to EA.hy 926 monolayers, LDHalive is the amount of LDH released from EA.hy 926 monolayers not subjected to PBMCs, and LDHdead is the amount of LDH released of EA.hy926 monolayers treated with RIPA buffer for 10 minutes at room temperature.

human pancreatic islets = experiment: Compatibility of cell surface engineering on pancreatic islets (LIVE/DEAD, DTZ); format: cell-based; details: 0.5 mM polymer, room temperature, 30 minutes
Protocol: FIG. 57: Compatibility of cell surface engineering on human pancreatic islet surfaces using gtTGase. Human pancreatic islets were incubated with 0.5 mM Q-tagged polymer, 0.2 U ml-1 gtTGase, 3 mM GSH and 5 mM CaCl2 at room temperature for 30 minutes. Cell viability was assessed using a LIVE/DEAD stain assay and insulin producing activity was assessed by DTZ detection assay.
as §2, with “For human pancreatic islets, live/dead imaging assay was used for cell viability and DTZ detection assay was used to determine insulin-producing beta cells from mixed cell cultures.” left out

Substance | NH3 production with TGase isoforms (Ea.hy926 cells [1]) | cell viability with TGase isoforms (Ea.hy926 cells [2]) | retention of the glycocalyx structure after exposure to superoxide anions (EA.hy 926 monolayers) | permeability of the monolayer after TNF-α activation (HMEC-1 cell monolayers) | cytokine profile of sera of recipient mice [3] | NH3 production (surface ligation efficiency) (Ea.hy926 cells [1]; 0.5 mM polymer, gtTGase, 30 min) | cell metabolic activity after bioconjugation (Ea.hy926 cells [2]) | cell viability under oxidative stress (Ea.hy926 cells [2]; cells grown 15 days, superoxide radicals) | platelet activation (CD62 surface markers) (platelets) | PBMC adhesion, in words [4] | PBMC-mediated endothelial cell death, in words [5] | cell viability and insulin producing activity (human pancreatic islets)
WLAQRPH-PEG: Q-tagged PEG polymer used to compare TGase isoforms (also: conjugated to PEG, site not given here) [reference compound] | favourable results | favourable results |  |  |  |  |  |  |  |  |  | 
GQQQLGGGGG-PEG: Q-tagged PEG polymer used to compare TGase isoforms (also: conjugated to PEG, site not given here) [reference compound] | favourable results | favourable results |  |  |  |  |  |  |  |  |  | 
Linear polyglycerol sulfate glutamine [LPGS-Q] |  |  | significantly larger retention of the glycocalyx structure | reduce non-specific macromolecule passage | beneficial anti-inflammatory properties post-transplantation | higher ammonia production than its non-sulfated counterparts | without affecting cell metabolic activity | rescue of the cells viability | did not induce platelet activation | evading recognition and subsequent adhesion | reducing PBMC-mediated cytotoxicity | still produce viable cells
